Results published in the supplement of paper PMC10307832.

What was measured:
Assay in all cases: relative viability (nuclei count vs DMSO), 5 days (fraction); higher = more cells survive
[1] = compound: CC1=C(C(=O)N2C=CSC2=N1)CCN3CCC(=C(C4=CC=CC=C4)C5=CC=C(C=C5)F)CC3 + O=C(c1cc(Cc2n[nH]c(=O)c3ccccc23)ccc1F)N1CCN(C(=O)C2CC2)CC1 [Olaparib] (partner 8 µM)
Procedure, shortened: (§1)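 For relative viability, nuclei counts in treated wells were divided by those in vehicle wells. Lung cancer cell lines had been pin-tool dosed in 1536-well plates the day after seeding and cultured for 5 days, then fixed and stained in one step (final 0.05% Triton X-100, 1% formaldehyde, 1 ug/ml Hoechst) and imaged at 4×. Doses were one drug alone or a fixed anchor-drug dose plus five library-drug doses (not always all listed) in √10 steps, and values are duplicate-plate medians.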

[2] = compound: CC1=C(C(=O)N2C=CSC2=N1)CCN3CCC(=C(C4=CC=CC=C4)C5=CC=C(C=C5)F)CC3 + Cc1nc(NC(=O)N2CCC[C@H]2C(N)=O)sc1-c1ccnc(C(C)(C)C(F)(F)F)c1 [Alpelisib] (partner 2 µM)
Procedure, shortened: as §1

[3] = compound: CC1=C(C(=O)N2C=CSC2=N1)CCN3CCC(=C(C4=CC=CC=C4)C5=CC=C(C=C5)F)CC3 + CC(=O)c1c(C)c2cnc(Nc3ccc(N4CCNCC4)cn3)nc2n(C2CCCC2)c1=O [Palbociclib] (partner 0.5 µM)
Procedure, shortened: as §1

[4] = compound: CC1=C(C(=O)N2C=CSC2=N1)CCN3CCC(=C(C4=CC=CC=C4)C5=CC=C(C=C5)F)CC3 + Nc1nc2[nH]cc(CCc3ccc(C(=O)N[C@@H](CCC(=O)O)C(=O)O)cc3)c2c(=O)[nH]1 [Pemetrexed] (partner 0.2 µM)
Procedure, shortened: as §1

| Cell Line | relative viability ([1]; first compound 0.08 µM) | relative viability ([1]; first compound 0.253 µM) | relative viability ([1]; first compound 0.8 µM) | relative viability ([1]; first compound 2.53 µM) | relative viability ([1]; first compound 8 µM) | relative viability ([2]; first compound 0.253 µM) | relative viability ([2]; first compound 0.8 µM) | relative viability ([2]; first compound 2.53 µM) | relative viability ([2]; first compound 8 µM) | relative viability ([3]; first compound 0.08 µM) | relative viability ([3]; first compound 0.253 µM) | relative viability ([3]; first compound 0.8 µM) | relative viability ([3]; first compound 2.53 µM) | relative viability ([3]; first compound 8 µM) | relative viability ([4]; first compound 0.08 µM) | relative viability ([4]; first compound 0.253 µM) | relative viability ([4]; first compound 0.8 µM) | relative viability ([4]; first compound 2.53 µM) | relative viability ([4]; first compound 8 µM) | relative viability ([2]; first compound 0.08 µM) |
| --- | --- | --- | --- | --- | --- | --- | --- | --- | --- | --- | --- | --- | --- | --- | --- | --- | --- | --- | --- | --- |
| HCC-366 | 0.331 | 0.287 | 0.469 | 0.464 | 0.226 | 0.428 | 0.471 | 0.605 | 0.243 | 0.392 | 0.394 | 0.458 | 0.337 | 0.277 | 0.199 | 0.169 | 0.206 | 0.156 | 0.139 |  |
| HCC-827 | 0.655 | 0.626 | 0.718 | 0.637 | 0.667 | 0.964 | 0.979 | 1.15 | 0.859 | 0.483 | 0.496 | 0.491 | 0.486 | 0.455 | 0.253 | 0.237 | 0.251 | 0.268 | 0.235 | 0.971 |
| HOP-62 | 0.388 | 0.461 | 0.445 | 0.434 | 0.352 | 0.852 | 0.971 | 0.945 | 0.56 | 0.439 | 0.479 | 0.457 | 0.411 | 0.288 | 0.335 | 0.315 | 0.306 | 0.336 | 0.12 | 0.974 |
| IA-LM | 0.93 | 0.926 | 0.848 | 0.709 | 0.687 | 0.576 | 0.845 | 0.988 | 0.465 |  |  |  |  |  |  |  |  |  |  | 0.554 |
| LC-2-ad | 0.87 | 0.79 | 0.65 | 0.875 | 0.574 | 0.91 | 0.789 | 0.962 | 0.794 | 0.463 | 0.459 | 0.475 | 0.473 | 0.458 | 0.247 | 0.268 | 0.277 | 0.271 | 0.281 | 0.936 |
| LCLC-97TM1 | 0.414 | 0.342 | 0.425 | 0.452 | 0.344 | 0.265 | 0.226 | 0.304 | 0.148 | 0.255 | 0.217 | 0.284 | 0.283 | 0.205 | 0.196 | 0.19 | 0.173 | 0.198 | 0.196 | 0.184 |
| LCLC-103H | 0.876 | 0.71 | 0.859 | 0.735 | 0.667 | 1 | 1.12 | 1.01 | 0.918 | 0.523 | 0.495 | 0.491 | 0.504 | 0.453 | 0.542 | 0.464 | 0.437 | 0.437 | 0.49 | 1.08 |
| LK-2 | 0.726 | 0.728 | 0.736 | 0.756 | 0.514 | 1.19 | 1.23 | 1.08 | 0.773 | 0.766 | 0.607 | 0.822 | 0.791 | 0.575 | 0.243 | 0.286 | 0.285 | 0.281 | 0.181 | 1.24 |
| LOU-NH91 | 0.872 | 0.845 | 0.928 | 0.946 | 0.813 | 0.709 | 0.807 | 0.749 | 0.677 | 0.501 | 0.59 | 0.543 | 0.547 | 0.536 | 0.303 | 0.3 | 0.438 | 0.387 | 0.346 | 0.687 |
| LU99A | 0.151 | 0.244 | 0.234 | 0.254 | 0.227 | 0.47 | 0.496 | 0.621 | 0.456 | 0.383 | 0.367 | 0.416 | 0.387 | 0.447 | 0.167 | 0.193 | 0.164 | 0.168 | 0.152 | 0.47 |
| LXF-289 | 0.987 | 1.32 | 1.07 | 1 | 0.635 | 1.07 | 1.08 | 1.03 | 0.917 | 0.595 | 0.666 | 0.604 | 0.599 | 0.469 | 0.931 | 0.883 | 0.871 | 0.901 | 0.76 | 1.06 |
| NCI-H522 | 0.622 | 0.732 | 0.647 | 0.664 | 0.513 |  |  |  |  | 1.08 | 1.09 | 0.809 | 0.977 | 0.933 | 0.958 | 0.997 | 0.964 | 0.914 | 0.764 |  |
| NCI-H596 | 0.67 | 0.646 | 0.677 | 0.695 | 0.708 | 0.478 | 0.624 | 0.503 | 0.426 |  |  |  |  |  | 0.49 | 0.511 | 0.488 | 0.584 | 0.466 | 0.396 |
| NCI-H727 | 0.86 | 0.734 | 0.667 | 0.689 | 0.599 | 0.509 | 0.493 | 0.738 | 0.425 | 0.582 | 0.547 | 0.577 | 0.665 | 0.701 |  |  |  |  |  | 0.507 |
| NCI-H1299 | 1.04 | 1.01 | 0.957 | 0.977 | 0.803 | 1.09 | 1.08 | 1.03 | 0.54 |  |  |  |  |  |  |  |  |  |  | 0.997 |
| NCI-H1563 |  |  |  |  |  | 0.909 | 0.879 | 0.885 | 0.779 |  |  |  |  |  | 0.971 | 0.766 | 0.744 | 0.833 | 0.653 | 0.82 |
| NCI-H1648 | 1.14 | 0.981 | 1.28 | 0.787 | 0.359 |  |  |  |  | 0.254 | 0.316 | 0.22 | 0.326 | 0.249 | 0.714 | 0.657 | 0.749 | 0.712 | 0.423 |  |
| NCI-H1650 | 0.782 | 0.838 | 0.862 | 0.819 | 0.605 |  |  |  |  | 0.395 | 0.345 | 0.313 | 0.383 | 0.348 | 0.335 | 0.348 | 0.352 | 0.461 | 0.337 |  |
| NCI-H1703 | 0.385 | 0.334 | 0.427 | 0.577 | 0.432 | 0.316 | 0.278 | 0.463 | 0.306 |  |  |  |  |  |  |  |  |  |  | 0.372 |
| NCI-H2342 | 0.38 | 0.44 | 0.435 | 0.426 | 0.43 |  |  |  |  | 0.48 | 0.487 | 0.548 | 0.519 | 0.528 | 0.657 | 0.821 | 0.76 | 0.818 | 0.634 |  |
